Test results reported in patent US6461997B1, “Triazole sulfones having herbicidal activity” (Monsanto Technology LLC, priority 1999, dated 2002).

Key:
[1] = test system: SETFA (giant foxtail); assay: Pre-plant incorporated (PPI) herbicidal activity, warm season; assay type: in vivo, Setaria faberi
Experimental: (§1) In another set of tests, the pre-plant incorporated (PPI) activity of compounds of this invention was evaluated on the same species as for the pre-emergence tests described above. In the PPI tests the following procedure, designed to simulate PPI application, was used.
(§2) A pre-prepared topsoil mixture (described above) was placed in a pot and compacted to a depth of 1.0 to 1.25 cm from the top of the pot. Seeds of each of several monocotyledonous and dicotyledonous annual plant species were placed on top of the soil. A sufficient quantity of soil to cover the seeds and level fill the pot was weighed into an open container. A known amount of the test compound was dissolved or suspended in an organic solvent and applied by spraying to this cover soil. The cover soil was thoroughly mixed to distribute the test compound throughout the cover soil, and was then applied as a cover layer over the seeds. Untreated soil was used as a cover layer for control pots. After treatment the plants were placed in a greenhouse where they received 0.64 cm of overhead irrigation. All subsequent watering consisted of a light overhead mist and/or subirrigation as needed for germination and growth. Tables 9 and 10 below relate to warm season plant species which were placed after pre-emergence treatment in a greenhouse with a 30/21° C. day/night temperature regime. Tables 11 and 12 below relates to cool season plant species placed after pre-emergence treatment in a greenhouse or growth chamber with an 18/13° C. day/night temperature regime. Only the compounds of Examples 1, 6, 8, 11, 13 and 15-20 were included in PPI tests.
(§3) Approximately 14 days after planting and treating, the plants were observed and herbicidal efficacy recorded as percent inhibition by comparison with untreated plants.

[2] = test system: VERPE (creeping speedwell); assay: Pre-emergence herbicidal activity, cool season; assay type: in vivo, Veronica persicaria; conditions: lowest tested rate with 80% or greater inhibition; rates 300, 100, 30, 10 g/ha; about 14 days
Outline: (§4)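 GR80 values derive from percent inhibition relative to untreated plants, read roughly 14 days after sowing and pre-emergence soil-surface treatment (compound in 50:50 acetone/water; rates typically 10, 30, 100, 300 g/ha). Warm-season weeds grew at 30/21° C day/night, cool-season ones at 18/13° C; an asterisk marks activity without reaching 80% at the highest rate.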

[3] = test system: SORHA (johnsongrass (seedling)); assay: Pre-plant incorporated (PPI) herbicidal activity, warm season; assay type: in vivo, Sorghum halepense
Experimental: as §1, §2, §3

[4] = test system: barley (HORVX); assay: Selectivity test, PPI, cool season crop; assay type: in vivo, Hordeunm vulgare; conditions: PPI application
Experimental: as §2, §3
(§5) Additional pre-emergence and PPI tests were conducted by the procedures described above, on warm and cool season weed species in the presence of crop species, to assess herbicidal selectivity. Crop species included in warm season tests were corn (Zea mays, ZEAMX), rice (Oryza sativa, ORYSA) and soybean (Glycine max, GLYMX). Crop species included in cool season tests were wheat (Triticum aestivum, TRZAW), barley (Hordeunm vulgare, HORVX) and oilseed rape (Brassica napus, BRSNS).
(§6) Tables 15 and 16 relate to pre-emergence and PPI tests respectively on warm season species. Table 17 relates to pre-emergence tests on cool season species.

[5] = test system: GALAP (catchweed bedstraw); assay: Pre-emergence herbicidal activity, cool season; assay type: in vivo, Galium aparine; conditions: lowest tested rate with 80% or greater inhibition; rates 300, 100, 30, 10 g/ha; about 14 days
Outline: as §4

[6] = test system: ECHCG (barnyardgrass); assay: Pre-emergence herbicidal activity, warm season; assay type: in vivo, Echinochloa crus-galli; conditions: for Pre-emergence activity (GR80) ECHCG: GR80 = lowest tested rate (300, 100, 30, 10 g/ha) with 80% or greater inhibition, approx. 14 days after treating, 30/21° C.
Outline: as §4

[7] = test system: ALOMY (blackgrass); assay: Pre-emergence herbicidal activity, cool season; assay type: in vivo, Alopecurus myosuroides; conditions: GR80 = lowest tested rate (300, 100, 30, 10 g/ha) with 80% or greater inhibition; approx. 14 days after treating; 18/13° C.
Outline: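 GR80 values, pre-emergence, soil applied at 300, 100, 30, 10 g/ha. Warm regime 30/21 °C: PANMI, DIGSA. Cool regime 18/13 °C: ALOMY, POLCO. Rating ~14 d, % inhibition vs untreated.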

[8] = test system: DIGSA (large crabgrass); assay: Pre-plant incorporated (PPI) herbicidal activity, warm season; assay type: in vivo, Digitaria sanguinalis
Experimental: as §1, §2, §3

[9] = test system: SETFA (giant foxtail); assay: Pre-emergence herbicidal activity, warm season; assay type: in vivo, Setaria faberi; conditions: for Pre-emergence activity (GR80) SETFA: GR80 = lowest tested rate (300, 100, 30, 10 g/ha) with 80% or greater inhibition, approx. 14 days after treating, 30/21° C.
Outline: as §4

[10] = test system: SINAR (wild mustard); assay: Pre-plant incorporated (PPI) herbicidal activity, cool season; assay type: in vivo, Sinapis arvensis
Experimental: as §1, §2, §3

[11] = test system: corn (ZEAMX); assay: Selectivity test, PPI, warm season crop; assay type: in vivo, Zea mays; conditions: PPI application
Experimental: as §2, §3, §5, §6

[12] = pre-plant incorporated, lowest tested rate with 80% or greater inhibition, about 14 days

CCN(CC)C(=O)n1cnc(S(=O)(=O)C(F)(F)Br)n1 [Example 1, 3-(bromodifluoromethylsulfonyl)-1-(N,N-diethylcarbamoyl)-1,2,4-triazole]
inhibition at 10 g/ha ([1]; Setaria faberi, PPI application, 10 g/ha, read-out: Percent inhibition SETFA): 100% | inhibition at 30 g/ha ([1]; Setaria faberi, PPI application, 30 g/ha, read-out: Percent inhibition SETFA): 70% | inhibition at 100 g/ha ([1]; Setaria faberi, PPI application, 100 g/ha, read-out: Percent inhibition SETFA): 100% | inhibition at 300 g/ha ([1]; Setaria faberi, PPI application, 300 g/ha, read-out: Percent inhibition SETFA): 100% | inhibition at 900 g/ha ([1]; Setaria faberi, PPI application, 900 g/ha, read-out: Percent inhibition SETFA): 100% | PPI activity GR80, SETFA [1, 12]: 30 g/ha | Pre-emergence activity GR80, VERPE [2]: 100 g/ha | inhibition at 10 g/ha ([3]; Sorghum halepense, PPI application, 10 g/ha, read-out: Percent inhibition SORHA): 70% | inhibition at 30 g/ha ([3]; Sorghum halepense, PPI application, 30 g/ha, read-out: Percent inhibition SORHA): 50% | inhibition at 100 g/ha ([3]; Sorghum halepense, PPI application, 100 g/ha, read-out: Percent inhibition SORHA): 100% | inhibition at 300 g/ha ([3]; Sorghum halepense, PPI application, 300 g/ha, read-out: Percent inhibition SORHA): 100% | inhibition at 900 g/ha ([3]; Sorghum halepense, PPI application, 900 g/ha, read-out: Percent inhibition SORHA): 100% | PPI activity GR80, SORHA [3, 12]: 30 g/ha | inhibition at 30 g/ha ([4]; Hordeum vulgare, 30 g/ha, read-out: Percent inhibition HORVX): 0% | inhibition at 100 g/ha ([4]; Hordeum vulgare, 100 g/ha, read-out: Percent inhibition HORVX): 10% | inhibition at 300 g/ha ([4]; Hordeum vulgare, 300 g/ha, read-out: Percent inhibition HORVX): 30% | inhibition at 900 g/ha ([4]; Hordeum vulgare, 900 g/ha, read-out: Percent inhibition HORVX): 50% | Pre-emergence activity GR80, GALAP [5]: 100 g/ha | inhibition at 10 g/ha ([6]; Echinochloa crus-galli, pre-emergence application, 10 g/ha, read-out: Percent inhibition, weed ECHCG): 0% | inhibition at 30 g/ha ([6]; Echinochloa crus-galli, pre-emergence application, 30 g/ha, read-out: Percent inhibition, weed ECHCG): 10% | inhibition at 100 g/ha ([6]; Echinochloa crus-galli, pre-emergence application, 100 g/ha, read-out: Percent inhibition, weed ECHCG): 45% | inhibition at 300 g/ha ([6]; Echinochloa crus-galli, pre-emergence application, 300 g/ha, read-out: Percent inhibition, weed ECHCG): 80% | inhibition at 900 g/ha ([6]; Echinochloa crus-galli, pre-emergence application, 900 g/ha, read-out: Percent inhibition, weed ECHCG): 95% | Pre-emergence activity (GR80) ECHCG [6]: 30 g/ha | Pre-emergence activity (GR80) ALOMY [7]: 300 g/ha | inhibition at 10 g/ha ([8]; Digitaria sanguinalis, PPI application, 10 g/ha, read-out: Percent inhibition DIGSA): 80% | inhibition at 30 g/ha ([8]; Digitaria sanguinalis, PPI application, 30 g/ha, read-out: Percent inhibition DIGSA): 95% | inhibition at 100 g/ha ([8]; Digitaria sanguinalis, PPI application, 100 g/ha, read-out: Percent inhibition DIGSA): 100% | inhibition at 300 g/ha ([8]; Digitaria sanguinalis, PPI application, 300 g/ha, read-out: Percent inhibition DIGSA): 100% | inhibition at 900 g/ha ([8]; Digitaria sanguinalis, PPI application, 900 g/ha, read-out: Percent inhibition DIGSA): 100% | PPI activity GR80, DIGSA [8, 12]: 100 g/ha | Pre-emergence activity (GR80) SETFA [9]: 100 g/ha | inhibition at 10 g/ha ([9]; Setaria faberi, pre-emergence application, 10 g/ha, read-out: Percent inhibition, weed SETFA): 0% | inhibition at 30 g/ha ([9]; Setaria faberi, pre-emergence application, 30 g/ha, read-out: Percent inhibition, weed SETFA): 0% | inhibition at 100 g/ha ([9]; Setaria faberi, pre-emergence application, 100 g/ha, read-out: Percent inhibition, weed SETFA): 40% | inhibition at 300 g/ha ([9]; Setaria faberi, pre-emergence application, 300 g/ha, read-out: Percent inhibition, weed SETFA): 100% | inhibition at 900 g/ha ([9]; Setaria faberi, pre-emergence application, 900 g/ha, read-out: Percent inhibition, weed SETFA): 100% | inhibition at 30 g/ha ([10]; Brassica, weed, PPI application, 30 g/ha, read-out: Percent inhibition SINAR): 100% | inhibition at 100 g/ha ([10]; Brassica, weed, PPI application, 100 g/ha, read-out: Percent inhibition SINAR): 100% | inhibition at 300 g/ha ([10]; Brassica, weed, PPI application, 300 g/ha, read-out: Percent inhibition SINAR): 100% | inhibition at 900 g/ha ([10]; Brassica, weed, PPI application, 900 g/ha, read-out: Percent inhibition SINAR): 100% | PPI activity GR80, SINAR [10, 12]: 100 g/ha | inhibition at 10 g/ha ([11]; Zea mays, 10 g/ha, read-out: Percent inhibition ZEAMX): 0% | inhibition at 30 g/ha ([11]; Zea mays, 30 g/ha, read-out: Percent inhibition ZEAMX): 0% | inhibition at 100 g/ha ([11]; Zea mays, 100 g/ha, read-out: Percent inhibition ZEAMX): 0% | inhibition at 300 g/ha ([11]; Zea mays, 300 g/ha, read-out: Percent inhibition ZEAMX): 25% | inhibition at 900 g/ha ([11]; Zea mays, 900 g/ha, read-out: Percent inhibition ZEAMX): 70%

CCN(CC)C(=O)n1cnc(S(=O)(=O)C(F)(F)F)n1 [Example 2]
Percent inhibition SETFA ([1]; PPI application, 30 g/ha): 20% | Percent inhibition SETFA ([1]; PPI application, 100 g/ha): 100% | Percent inhibition SETFA ([1]; PPI application, 300 g/ha): 100% | Percent inhibition SETFA ([1]; PPI application, 900 g/ha): 90% | Pre-emergence activity GR80, VERPE [2]: 10 g/ha | Percent inhibition SORHA ([3]; PPI application, 30 g/ha): 70% | Percent inhibition SORHA ([3]; PPI application, 100 g/ha): 80% | Percent inhibition SORHA ([3]; PPI application, 300 g/ha): 100% | Percent inhibition SORHA ([3]; PPI application, 900 g/ha): 100% | Percent inhibition HORVX ([4]; 30 g/ha): 0% | Percent inhibition HORVX ([4]; 100 g/ha): 30% | Percent inhibition HORVX ([4]; 300 g/ha): 20% | Percent inhibition HORVX ([4]; 900 g/ha): 100% | Pre-emergence activity GR80, GALAP [5]: 100 g/ha | Pre-emergence activity (GR80) ECHCG [6]: 30 g/ha | Pre-emergence activity (GR80) ALOMY [7]: 100 g/ha | Percent inhibition DIGSA ([8]; PPI application, 30 g/ha): 85% | Percent inhibition DIGSA ([8]; PPI application, 100 g/ha): 99% | Percent inhibition DIGSA ([8]; PPI application, 300 g/ha): 90% | Percent inhibition DIGSA ([8]; PPI application, 900 g/ha): 100% | Pre-emergence activity (GR80) SETFA [9]: 100 g/ha | Percent inhibition SINAR ([10]; weed, PPI application, 30 g/ha): 10% | Percent inhibition SINAR ([10]; weed, PPI application, 100 g/ha): 100% | Percent inhibition SINAR ([10]; weed, PPI application, 300 g/ha): 100% | Percent inhibition SINAR ([10]; weed, PPI application, 900 g/ha): 100% | Percent inhibition ZEAMX ([11]; 30 g/ha): 5% | Percent inhibition ZEAMX ([11]; 100 g/ha): 10% | Percent inhibition ZEAMX ([11]; 300 g/ha): 50% | Percent inhibition ZEAMX ([11]; 900 g/ha): 80%
